Results reported in patent publication US20250034216A1, “STEREOSELECTIVE COVALENT LIGANDS FOR ONCOGENIC AND IMMUNOLOGICAL PROTEINS” (The Scripps Research Institute, priority 2021, published 2025).

Columns and labels:
ITPR2_C579 = target: T1, ITPR2_C579 (Homo sapiens, UniProt Q14571); assay: IA-DTB cysteine engagement; format: binding; details: 22Rv1 cells, 20 μM probe, 1 h, relative to DMSO
T1 construct: endogenous in cells; host or cells: 22Rv1
Outline: (§1)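 Cells were treated in situ with electrophilic probes, then lysed, and the lysates (2 mg/mL protein) were labeled with IA-DTB for 1 h at ambient temperature. After reduction, alkylation and trypsin digestion, labeled peptides were streptavidin-enriched, TMT-labeled and fractionated. Engagement ratios are probe vs DMSO reporter intensities, averaged across replicates.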

ALG3_C21 = target: T2, ALG3_C21 (Homo sapiens, UniProt Q92685); assay: IA-DTB cysteine engagement; format: binding; details: 22Rv1 cells, 20 μM probe, 1 h, relative to DMSO
T2 construct: endogenous in cells; host or cells: 22Rv1
T2 sequence (Q92685 1-438): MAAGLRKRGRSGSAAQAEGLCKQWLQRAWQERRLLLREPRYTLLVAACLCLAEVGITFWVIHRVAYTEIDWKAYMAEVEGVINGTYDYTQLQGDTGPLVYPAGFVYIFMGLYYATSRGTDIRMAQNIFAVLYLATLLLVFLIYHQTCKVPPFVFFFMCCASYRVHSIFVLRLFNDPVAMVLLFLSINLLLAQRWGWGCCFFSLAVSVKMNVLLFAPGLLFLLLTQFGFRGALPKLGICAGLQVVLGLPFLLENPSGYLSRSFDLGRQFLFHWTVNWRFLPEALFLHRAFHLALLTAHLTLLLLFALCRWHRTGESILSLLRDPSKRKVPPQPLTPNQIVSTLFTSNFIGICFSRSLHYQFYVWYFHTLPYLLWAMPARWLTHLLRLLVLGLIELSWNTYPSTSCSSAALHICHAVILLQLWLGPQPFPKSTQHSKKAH
Outline: as §1

T1 sequence (Q14571 whole entry): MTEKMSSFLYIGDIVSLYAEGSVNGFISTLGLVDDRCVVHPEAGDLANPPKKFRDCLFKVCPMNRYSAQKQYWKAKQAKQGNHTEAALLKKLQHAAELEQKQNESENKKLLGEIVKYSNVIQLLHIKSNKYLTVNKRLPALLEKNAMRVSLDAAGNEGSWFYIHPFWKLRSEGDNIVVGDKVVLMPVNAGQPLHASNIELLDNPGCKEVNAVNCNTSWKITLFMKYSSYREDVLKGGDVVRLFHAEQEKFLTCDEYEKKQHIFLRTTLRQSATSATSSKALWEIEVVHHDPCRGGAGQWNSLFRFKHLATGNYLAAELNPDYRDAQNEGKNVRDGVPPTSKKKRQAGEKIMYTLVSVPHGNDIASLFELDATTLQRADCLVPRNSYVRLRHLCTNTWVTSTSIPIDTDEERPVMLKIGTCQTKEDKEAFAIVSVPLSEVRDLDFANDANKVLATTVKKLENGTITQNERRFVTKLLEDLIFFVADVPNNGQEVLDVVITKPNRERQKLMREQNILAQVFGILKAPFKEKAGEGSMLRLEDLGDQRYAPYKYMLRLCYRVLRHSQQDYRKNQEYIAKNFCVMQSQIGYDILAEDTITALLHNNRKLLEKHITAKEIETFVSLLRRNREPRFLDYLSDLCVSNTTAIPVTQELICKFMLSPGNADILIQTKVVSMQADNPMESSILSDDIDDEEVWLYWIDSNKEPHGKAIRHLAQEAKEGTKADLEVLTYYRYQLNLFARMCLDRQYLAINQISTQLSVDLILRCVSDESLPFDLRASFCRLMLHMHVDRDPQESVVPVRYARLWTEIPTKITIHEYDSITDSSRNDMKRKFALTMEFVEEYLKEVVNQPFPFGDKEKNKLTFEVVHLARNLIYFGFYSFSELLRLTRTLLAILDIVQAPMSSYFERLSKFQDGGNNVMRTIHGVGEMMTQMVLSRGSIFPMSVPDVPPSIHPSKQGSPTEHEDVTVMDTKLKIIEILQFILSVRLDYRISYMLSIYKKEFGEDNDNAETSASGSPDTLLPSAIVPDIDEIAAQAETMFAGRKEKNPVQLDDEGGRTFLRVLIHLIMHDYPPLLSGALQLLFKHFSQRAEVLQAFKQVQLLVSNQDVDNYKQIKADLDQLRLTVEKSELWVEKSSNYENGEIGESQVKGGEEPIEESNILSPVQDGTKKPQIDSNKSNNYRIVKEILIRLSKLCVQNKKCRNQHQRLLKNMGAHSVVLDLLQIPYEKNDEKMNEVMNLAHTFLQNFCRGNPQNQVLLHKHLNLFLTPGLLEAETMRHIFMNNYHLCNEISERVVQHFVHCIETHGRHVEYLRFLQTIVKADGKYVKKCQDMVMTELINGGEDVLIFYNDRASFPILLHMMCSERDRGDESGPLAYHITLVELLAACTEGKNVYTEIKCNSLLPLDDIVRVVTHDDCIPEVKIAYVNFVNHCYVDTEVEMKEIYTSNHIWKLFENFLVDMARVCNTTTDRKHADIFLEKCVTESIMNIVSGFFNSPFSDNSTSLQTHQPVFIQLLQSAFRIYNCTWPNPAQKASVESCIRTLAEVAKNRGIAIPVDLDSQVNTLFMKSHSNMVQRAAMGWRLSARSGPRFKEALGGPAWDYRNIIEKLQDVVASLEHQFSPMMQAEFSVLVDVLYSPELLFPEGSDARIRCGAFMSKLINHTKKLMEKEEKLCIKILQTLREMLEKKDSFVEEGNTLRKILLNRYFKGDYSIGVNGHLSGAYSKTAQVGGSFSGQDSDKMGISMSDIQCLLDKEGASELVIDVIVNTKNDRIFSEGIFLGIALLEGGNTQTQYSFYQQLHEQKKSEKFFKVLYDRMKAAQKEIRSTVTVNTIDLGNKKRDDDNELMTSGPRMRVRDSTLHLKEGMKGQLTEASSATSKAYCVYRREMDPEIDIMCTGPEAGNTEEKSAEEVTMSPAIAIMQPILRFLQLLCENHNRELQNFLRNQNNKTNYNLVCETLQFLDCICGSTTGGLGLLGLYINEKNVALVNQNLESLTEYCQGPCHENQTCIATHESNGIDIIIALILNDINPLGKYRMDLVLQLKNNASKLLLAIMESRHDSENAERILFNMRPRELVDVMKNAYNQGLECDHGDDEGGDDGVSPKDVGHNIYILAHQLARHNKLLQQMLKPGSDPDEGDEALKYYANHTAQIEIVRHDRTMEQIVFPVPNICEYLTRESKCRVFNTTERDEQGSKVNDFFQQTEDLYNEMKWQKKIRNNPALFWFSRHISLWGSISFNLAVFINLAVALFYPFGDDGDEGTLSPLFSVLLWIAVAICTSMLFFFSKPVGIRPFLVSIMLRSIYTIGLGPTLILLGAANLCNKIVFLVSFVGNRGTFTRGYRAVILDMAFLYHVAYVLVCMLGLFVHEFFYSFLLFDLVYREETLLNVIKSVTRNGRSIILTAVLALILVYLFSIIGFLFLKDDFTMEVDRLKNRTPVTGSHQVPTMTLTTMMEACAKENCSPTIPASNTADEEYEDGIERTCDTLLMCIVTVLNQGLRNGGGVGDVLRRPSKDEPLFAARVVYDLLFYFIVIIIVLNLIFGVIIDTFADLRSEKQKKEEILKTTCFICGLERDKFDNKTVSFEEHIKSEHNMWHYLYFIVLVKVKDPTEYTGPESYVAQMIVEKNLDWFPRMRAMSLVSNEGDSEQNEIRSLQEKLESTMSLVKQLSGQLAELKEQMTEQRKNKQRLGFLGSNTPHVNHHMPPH

| % engagement ITPR2_C579 (ITPR2_C579) [%] | % engagement ALG3_C21 (ALG3_C21) [%] | SMILES |
| --- | --- | --- |
| 70.75 | 84.75 | C=CC(=O)N1C[C@H](c2ccc(Br)cc2)[C@H]1C(=O)Nc1cccc2cccnc12 [MY-3B, (2S,3S)-1-acryloyl-3-(4-bromophenyl)-N-(quinolin-8-yl)azetidine-2-carboxamide] |
| 11.25 | 68 | C=CC(=O)N1C[C@H](c2ccc(Br)cc2)[C@@H]1C(=O)Nc1cccc2cccnc12 [MY-1B, (2R,3S)-1-acryloyl-3-(4-bromophenyl)-N-(quinolin-8-yl)azetidine-2-carboxamide] |
| 4.5 | 74.5 | C=CC(=O)N1C[C@H](c2ccc(Br)cc2)[C@H]1C(=O)Nc1cccc2cccnc12 [MY-3A, (2S,3S)-1-acryloyl-3-(4-bromophenyl)-N-(quinolin-8-yl)azetidine-2-carboxamide] |
| 7.75 | 90.25 | C=CC(=O)N1C[C@@H](c2ccc(Br)cc2)[C@H]1C(=O)Nc1cccc2cccnc12 [MY-1A, (2S,3R)-1-acryloyl-3-(4-bromophenyl)-N-(quinolin-8-yl)azetidine-2-carboxamide] |
